Assays:
Visna-Virus = test: Visna virus test in cell culture (inhibition of virus-induced cytopathic effect, method of Narayan et al.); format: cell-based; conditions: Visna-virus-infected cell cultures treated with the compound at non-cytotoxic concentrations
From the text: In Zellkulturen, die mit Visna-Virus infiziert sind, treten 5 bis 10 Tage nach der Infektion ausgeprägte virusinduzierte, zytopathische Effekte auf. Durch Behandlung der infizierten Zellkulturen mit 9-(2,3-Anhydro-β-D-lyxofuranosyl)adenin konnte das Auftreten dieser zytopathischen Effekte verhindert werden. Der Visna-Virus-Test wurde nach der Methode von O. Narayan et al., Journal of Infectious Dieseases 135, 5, 1977, 800-806 durchgeführt. Dazu wurde 9-(2,3-Anhydro-β-D-lyxofuranosyl)adenin - in Produktionsmedium gelöst - in nicht zytotoxischen Konzentrationen in 96er Microtiterplatten verdünnt. Anschließend wurden Fibroblastenzellen vom Schaf (5 x 10⁴ Zellen pro Napf) - in Produktionsmedium suspendiert - zu jedem Näpfchen zugeführt. Jedes Näpfchen erhielt dann 50 µl einer Visna-Viruslösung mit einer Titer von ca. 2,5 x 10⁴ TCID₅₀ (TCID = tissue culture infectious dose). Diese Virusdosis entspricht einer MOI (Multiplizität der Infektion) von ca. 0,05.
Unter diesen Infektionsbedingungen resultierte zwischen Tag 5 und Tag 10 in einer Infektionskontrolle ohne Substanz ein virusinduzierter, zytopathischer Effekt. Die infizierten und behandelten Zellen und die Kontrollzellen wurden 7 Tage bei 37°C, 5 % CO₂ inkubiert. […]

T-Zellen = test: Further studies: influence on the function of T cells; format: cell-based; conditions: no method or concentration given

For `Nc1ncnc2c1ncn2[C@@H]1O[C@H](CO)[C@@H]2O[C@@H]21` [9-(2,3-Anhydro-β-D-lyxofuranosyl)adenin], the “Auftreten der virusinduzierten zytopathischen Effekte” value (Visna-Virus) was “verhindert” and the “Funktion von T-Zellen” value (T-Zellen) was “nicht beeinflußt”.

Source: EP0305843A2, “Antiviral agent” (BAYER AG, priority 1987, dated 1989)
